From US8110586B2, “8-aza-bicyclo[3.2.1]octane derivatives and their use as monoamine neurotransmitter re-uptake inhibitors” (Neurosearch A/S, priority 2006, dated 2012)
Structures can show the parent of a compound that is named as a salt.

Legend:
[1] = target: T1, reuptake of dopamine (DA) in synaptosomes (Rattus norvegicus, UniProt P23977); assay: Inhibition of dopamine reuptake in synaptosomes; type: biochemical; settings: 3H-DA, read-out: DA-uptake IC50
T1 construct: in synaptosomes as described in WO 97/16451; from tissue
T1 sequence (P23977 whole entry): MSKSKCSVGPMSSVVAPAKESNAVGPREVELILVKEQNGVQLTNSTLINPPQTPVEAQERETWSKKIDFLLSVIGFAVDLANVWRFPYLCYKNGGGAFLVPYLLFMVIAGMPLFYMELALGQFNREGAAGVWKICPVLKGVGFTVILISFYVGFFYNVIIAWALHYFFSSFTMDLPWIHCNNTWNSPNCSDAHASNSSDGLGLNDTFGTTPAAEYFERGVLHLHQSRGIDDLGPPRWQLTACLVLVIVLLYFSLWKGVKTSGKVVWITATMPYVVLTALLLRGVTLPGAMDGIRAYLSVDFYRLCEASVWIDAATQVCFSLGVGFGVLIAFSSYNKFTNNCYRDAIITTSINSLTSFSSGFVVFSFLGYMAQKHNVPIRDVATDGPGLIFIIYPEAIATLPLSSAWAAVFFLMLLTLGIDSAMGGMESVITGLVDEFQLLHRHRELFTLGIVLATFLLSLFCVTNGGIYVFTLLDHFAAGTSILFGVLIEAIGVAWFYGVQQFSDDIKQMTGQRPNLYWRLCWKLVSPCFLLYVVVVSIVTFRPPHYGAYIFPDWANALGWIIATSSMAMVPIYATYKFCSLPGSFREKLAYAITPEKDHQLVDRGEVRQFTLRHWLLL

[2] = target: T2, reuptake of serotonine (5-HT) in synaptosomes (Rattus norvegicus, UniProt P31652); assay: Inhibition of serotonin reuptake in synaptosomes; type: biochemical
T2 construct: in synaptosomes as described in WO 97/16451; from tissue
T2 sequence (P31652 whole entry): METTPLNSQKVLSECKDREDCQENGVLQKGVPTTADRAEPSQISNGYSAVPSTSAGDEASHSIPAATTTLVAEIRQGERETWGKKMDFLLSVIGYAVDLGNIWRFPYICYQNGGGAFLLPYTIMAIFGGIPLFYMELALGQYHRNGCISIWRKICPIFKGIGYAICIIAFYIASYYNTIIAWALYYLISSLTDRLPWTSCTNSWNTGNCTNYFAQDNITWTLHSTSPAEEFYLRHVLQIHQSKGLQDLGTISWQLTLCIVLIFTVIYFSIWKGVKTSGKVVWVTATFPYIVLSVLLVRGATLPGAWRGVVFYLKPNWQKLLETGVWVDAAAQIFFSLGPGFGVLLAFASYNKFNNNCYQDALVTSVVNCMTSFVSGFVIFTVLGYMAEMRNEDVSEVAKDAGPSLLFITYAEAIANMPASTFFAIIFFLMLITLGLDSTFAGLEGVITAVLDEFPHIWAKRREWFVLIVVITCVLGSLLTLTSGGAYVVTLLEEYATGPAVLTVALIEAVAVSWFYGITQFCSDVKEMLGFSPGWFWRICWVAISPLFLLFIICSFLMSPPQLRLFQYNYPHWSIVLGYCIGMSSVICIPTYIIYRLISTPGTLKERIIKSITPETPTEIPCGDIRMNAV
Experimental: A number of compounds were tested for their ability to inhibit the reuptake of the monoamine neurotransmitters dopamine (DA) noradrenaline (NA) and serotonine (5-HT) in synaptosomes as described in WO 97/16451.
The test values are given as IC50 (the concentration (μM) of the test substance which inhibits the specific binding of ^3H-DA, ^3H-NA, or ^3H-5-HT by 50%).

Structure (SMILES)	IC50 [1]	IC50 [2]	melting point
COc1ccc2ccc(OC3CC4CCC(C3)N4)cc2c1 (stereo not drawn) [Last compound of Example A, exo-3-(7-Methoxy-naphthalen-2-yloxy)-8-aza-bicyclo[3.2.1]octane]	1400 nM	0.42 nM	
COc1ccc2cc(OC3CC4CCC(C3)N4)ccc2c1 (stereo not drawn) [First compound of Example A, exo-3-(6-Methoxy-naphthalen-2-yloxy)-8-aza-bicyclo[3.2.1]octane]	420 nM	26 nM	
COc1ccc2ccc(OC3CC4CCC(C3)N4)cc2c1 (stereo not drawn) (as salt: hydrochloric acid salt) [Last compound of Example A, exo-3-(7-Methoxy-naphthalen-2-yloxy)-8-aza-bicyclo[3.2.1]octane]			225 °C
COc1ccc2cc(OC3CC4CCC(C3)N4)ccc2c1 (stereo not drawn) (as salt: hydrochloric acid salt) [First compound of Example A, exo-3-(6-Methoxy-naphthalen-2-yloxy)-8-aza-bicyclo[3.2.1]octane]			237 to 239 °C
